Columns and labels:
[1] = Odour detection threshold (ODT), olfactometer TO8, expert panel, DIN EN 13725; conditions: for ODT (odour detection threshold): olfactometer TO8, panel of at least four experts
Excerpt: The odour detection threshold is defined as the lowest concentration of a certain odorous compound (gaseous and sensorially active substance) which is perceivable and thus which can be distinguished with certainty from a blank reference under standard conditions. Generally, lower ODT values are preferred as a lower amount of the corresponding fragrance compound is required in order to a achieve an intense odour impressions and thus overall lower amounts can be used for perfuming. However, as the threshold depends on various factors such as concentration, solubility, partition coefficient between air and the olfactory active substance, vapor pressure and the like, predictions referring to the ODT of a substance, i.e. a fragrance material are difficult to make. The ODT was measured using an olfactometer TO8 and a panel of at least four experts according to DIN standard EN 13725.

[2] = Chemical stability in citric acid-based cleaner pH 2 (SPME GC-MS); assay type: physicochemical; conditions: for acid-stability compared with Javanol: 0.3% in citric acid-based cleaner pH 2, 14 days, 6, 22, 40 and 50 °C, versus fresh sample
Description: In order to analyse the stability of the inventive compounds, different samples each containing 0.3% of either compound 3a, compound 3b or Javanol® (Givaudan), respectively, in a citric acid-based cleaner having a pH of 2 were analysed, i.e., the stability test was carried out using a representative acidic cleaner (pH=2) in which the corresponding fragrance compounds were incorporated in an amount of 0.3% relative to the acidic cleaner.
The stability was analysed via solid-phase microextraction (SPME) and coupled gas chromatography-mass spectrometry (GC-MS) by using a combination of polydimethylsiloxane and divinylbenzene as SPME fibre coating (PDMS/DVB fibre) and a polydimethylsiloxane-based DB-1 column for gas chromatography (100% polydimethylsiloxane) for each sample containing one of the fragrance compounds as indicated above. The stability was tested for various samples after 14 days of acidic treatment at different storage temperatures (6° C., 22° C., 40° C. and 50° C.) in comparison to a freshly prepared sample as reference (see FIGURE).

Compound	ODT (odour detection threshold) [1]	acid-stability compared with Javanol [2]	acid-stability at 22 °C ([2]; 0.3% in citric acid-based cleaner pH 2, 14 days, 22 °C)	factor by which threshold value is lower than Javanol ([1]; ODT compared with Javanol (Givaudan))	decomposition at 50 °C ([2]; 0.3% in citric acid-based cleaner pH 2, 14 days, 50 °C)	decomposition at moderate temperatures ([2]; 0.3% in citric acid-based cleaner pH 2, 14 days, moderate temperatures)	chemical stability under acidic conditions ([2]; acidic conditions, general statement)
CCC(CO)C1CC1C1CC2CC2(C)C1(C)C (stereo not shown) [Compound 3a, 2-[2-(1,2,2-trimethyl-3-bicyclo[3.1.0]hexanyl)cyclopropyl]butan-1-ol]	0.000244 ppm (v/v)	better acid-stability over the whole temperature range	Best stabilities	–	–	–	–
CC(CO)C1CC1C1CC2CC2(C)C1(C)C (stereo not shown) [Compound 3b, 2-[2-(1,2,2-trimethyl-3-bicyclo[3.1.0]hexanyl)cyclo-propyl]propan-1-ol]	0.0000165 ppm (v/v)	better acid-stability over the whole temperature range	–	about 6.5	–	–	–
CC1(CO)CC1CC1CC2CC2(C)C1(C)C (stereo not shown) [Javanol®, [1-methyl-2-[(1,2,2-trimethyl-3-bicyclo[3.1.0]hexanyl)methyl]cyclo-propyl]methanol, reference compound]	0.000104 ppm (v/v)	–	–	–	fully decomposes	seems to decompose quickly even at moderate temperatures	not chemically stable under acidic conditions
